Data as given in article PMC12703428, “Development of Granzyme A Turn‐ON Fluorescent Activity‐Based Probes” (Chembiochem, 2025).
Square brackets hold non-standard residues; d marks the D form. Ends that are not written are not given here. Oic = O=C(O)[C@@H]1C[C@@H]2CCCC[C@@H]2N1; Tic = O=C(O)[C@@H]1Cc2ccccc2CN1

Tests used:
[1] = target: T1, proteinase 3 (PR3) (Homo sapiens, UniProt P24158); assay: Cross-reactivity labeling, proteinase 3; type: biochemical; details: protease 100 nM, probe 100 nM, 2 h, 37 °C, in-gel fluorescence
T1 sequence (P24158 28-256): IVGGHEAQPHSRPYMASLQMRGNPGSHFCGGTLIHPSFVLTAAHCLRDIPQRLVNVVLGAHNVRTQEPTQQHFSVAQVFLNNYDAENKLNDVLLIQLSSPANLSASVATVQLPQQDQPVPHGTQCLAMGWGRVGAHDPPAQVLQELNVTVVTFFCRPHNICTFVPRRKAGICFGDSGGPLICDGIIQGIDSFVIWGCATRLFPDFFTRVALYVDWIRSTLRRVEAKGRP
Description: Protease (100 nM) HNE PR3 GzmK GzmA
Protease (100 nM) GzmA GzmK
Supplementary Figure 2. Cross-reactivity of probes. (A) Labeling of GzmA, GzmK, PR3, and HNE
(100 nM, 2 h, 37 °C) by 100 nM of 5 and 6. (B) Labeling of GzmA and GzmK (100 nM, 2 h, 37 °C) by
100 nM of 3 – 6. (C) Concentration-dependent labeling of GzmA and GzmK (100 nM, 2 h, 37 °C) by 5 and
6. Protein samples were analyzed by SDS-PAGE and in-gel fluorescence scanning for Cy5 signal.
Protein loading was confirmed by SYPRO Ruby staining. […]

[2] = system: MDA‐MB‐231 cells co‐cultured with NK‐92 cells; assay: GzmA transfer in NK-92 / MDA-MB-231 coculture; type: cell-based, human; details: 5x10^5 MDA-MB-231 with 2x10^6 NK-92 cells, probe 5 μM, 1-6 h, flow cytometry and gel-based analyses
Description: Figure 4 Characterization of qABPs in native proteomes. A) Labeling of GzmA by 5 and 6 in lysates of various cell lines (1 h, 37 °C). B) Stability of 5 and 6 in buffer and cell media (11 h, 37 °C). The hydrolysis of probes was measured by monitoring the production of Cy5 fluorescence signal over time. […] C) Labeling of GzmA by probes 3 –6 in NK‐92 cells (2 h, 37 °C). D) Flow cytometry analysis of protein labeling in NK‐92 cells by 3 –5. […] E) Flow cytometry analysis of concentration‐dependent GzmA labeling in NK‐92 cells and S/N of 5 (5 μM, 2 h, 37 °C). […]
Supplementary Figure 5. […] Protein samples were analyzed by SDS-PAGE and in-gel fluorescence scanning for Cy5 signal. […]
Conditions for Figure 4C: Various concentrations of probes 3-6 were incubated with 1x10^6 NK-92 cells for 2 h at 37 °C in a humidified incubator. […] Lysates were collected, protein concentration was measured with PIERCE BCA protein assay and samples were analyzed with in-gel fluorescence and GzmA western blotting. […]
All flow cytometry data were collected on BD LSRFortessa and FACSymphony A5 Cell Analyzers and analyzed with FlowJo software. […] Fixed/Permeabilized cells were then resuspended in appropriate amounts of cell staining buffer (BioLegend #420201) and analyzed with flow cytometry and FlowJo software. […]

[3] = Stability of probes in buffer and cell media (hydrolysis by Cy5 signal); type: physicochemical; details: cell culture media, 11 h incubation, 37 °C, read-out production of Cy5 fluorescence signal, mean ± SD n = 3
Description: Figure 4 Characterization of qABPs in native proteomes. A) Labeling of GzmA by 5 and 6 in lysates of various cell lines (1 h, 37 °C). B) Stability of 5 and 6 in buffer and cell media (11 h, 37 °C). The hydrolysis of probes was measured by monitoring the production of Cy5 fluorescence signal over time. […] C) Labeling of GzmA by probes 3 –6 in NK‐92 cells (2 h, 37 °C). D) Flow cytometry analysis of protein labeling in NK‐92 cells by 3 –5. […] E) Flow cytometry analysis of concentration‐dependent GzmA labeling in NK‐92 cells and S/N of 5 (5 μM, 2 h, 37 °C). […] F) Flow cytometry analysis of protein labeling by 5 in MDA‐MB‐231 cells co‐cultured with NK‐92 cells (see Supporting Information for conditions). […] TEXT PRINTED IN THE PICTURE: (E) qABP 5: S/N = 4

Substance	Labeling of PR3 (cross-reactivity) [1]	Detection of GzmA transfer from NK-92 cells to MDA-MB-231 cells [2]	Hydrolysis of probe [3]
IGNR [compound 5]	Neither probe 5 nor 6 showed detectable labeling	able to detect GzmA transfer	–
[Tic]G[Oic]R [compound 6]	Neither probe 5 nor 6 showed detectable labeling	–	≈ 20%
